The target in test [1] is T1, Met (Homo sapiens (Human), UniProt P08581). Description: Human Met kinase assay (33P radiometric, KinaseProfiler). The settings on record: 10 μM ATP, read-out: c-Met IC50. The format is biochemical. The method, then:
(§1) Kinase activity and compound inhibition were investigated using the ^33P-Phosphoryl transfer radiometric kinase assay, performed using the KinaseProfiler™ service of Eurofins Pharma Discovery Services UK Limited. Dose-response experiments were performed using nine compound concentrations in a 96-well microtiter plate. For each assay, all compounds were prepared to a 50× final assay concentration (50 μM) in 100% DMSO, then diluted in a half-log series, with the final top concentration at 1 μM. This working stock of the compound was added to the assay well as the first component in the reaction, followed by the remaining components as detailed in the following assay protocols below. The positive control wells (100% kinase activity) contain all components of the reaction including 2% DMSO (control for solvent effects), except the compound of interest. Blank wells contain all components of the reaction, with the reference inhibitor, staurosporine. This reference compound was used to abolish kinase activity and generated the 0% kinase activity base-line. IC50 values were calculated by nonlinear regression analysis using the sigmoidal dose-response (variable slope) curve fit on XLFit version 5.3 (ID Business Solutions).
Human Met (residues R974-S1390 with A1209G and V1290L, 3.4 nM) was incubated with 8 mM MOPS pH 7.0, 0.2 mM EDTA, 250 µM KKKGQEEEYVFIE (SEQ ID NO. 45), 1 mM sodium orthovanadate, 5 mM […], 10 mM magnesium acetate, and 10 μM [γ-33P-ATP]. The reaction was initiated by the addition of the Mg/ATP mix. After incubation for 40 minutes at room temperature, the reaction was stopped by the addition of phosphoric acid to a concentration of 0.5%. A reaction aliquot of 10 μL was then spotted onto a P30 filtermat and washed four times for 4 minutes in 0.425% phosphoric acid and once in methanol prior to drying and scintillation counting. Incorporated 33P was measured using the Wallac Microbeta scintillation counter (Perkin Elmer).

A further test concerns the target Human Axl (Homo sapiens (Human), UniProt P30530, Q764R). Description: Human AXL kinase assay (33P radiometric, KinaseProfiler). The format is biochemical. The settings on record: 10 μM ATP. How it is done:
as §1
Human Axl (residues H473-A894 with Q764R, 161 nM) was incubated with 8 mM MOPS pH 7.0, 0.2 mM EDTA, 250 μM KKSRGDYMTMQIG (SEQ ID NO. 43), 10 mM magnesium acetate and 10 μM [γ-33P-ATP]. The reaction was initiated by the addition of the Mg/ATP mix. After incubation for 40 minutes at room temperature, the reaction was stopped by the addition of phosphoric acid to a concentration of 0.5%. A reaction aliquot of 10 μL was then spotted onto a P30 filtermat and washed four times for 4 minutes in 0.425% phosphoric acid and once in methanol prior to drying and scintillation counting. Incorporated ^33P was measured using the Wallac Microbeta scintillation counter (Perkin Elmer).

In another test the target is Mer (Homo sapiens (Human), UniProt Q12866). In words: Human Mer kinase assay (33P radiometric, KinaseProfiler). The settings on record: 10 μM ATP. In kind it is biochemical. How it is done: as §1
Mer, sequence (Q12866 557-882): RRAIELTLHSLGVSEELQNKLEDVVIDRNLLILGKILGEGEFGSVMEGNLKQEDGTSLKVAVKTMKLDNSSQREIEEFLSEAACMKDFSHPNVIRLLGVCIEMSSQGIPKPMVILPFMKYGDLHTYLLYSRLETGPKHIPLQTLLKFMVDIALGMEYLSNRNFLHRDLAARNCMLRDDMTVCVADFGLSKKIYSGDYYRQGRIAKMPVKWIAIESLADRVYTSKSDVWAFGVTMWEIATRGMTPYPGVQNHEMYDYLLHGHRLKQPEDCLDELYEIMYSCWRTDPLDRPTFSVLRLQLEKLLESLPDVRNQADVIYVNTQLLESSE
Human Mer (residues R557-E882 with H628Q and R794A, 0.7 nM) was incubated with 8 mM MOPS pH 7.0, 0.2 mM EDTA, 30 mM NaCl, 250 μM GGMEDIYFEFMGGKKK (SEQ ID NO. 44), 10 mM magnesium acetate, and 10 μM [γ-33P-ATP]. The reaction was initiated by the addition of the Mg/ATP mix. After incubation for 40 minutes at room temperature, the reaction was stopped by the addition of phosphoric acid to a concentration of 0.5%. A reaction aliquot of 10 μL was then spotted onto a P30 filtermat and washed four times for 4 minutes in 0.425% phosphoric acid and once in methanol prior to drying and scintillation counting. Incorporated 33P was measured using the Wallac Microbeta scintillation counter (Perkin Elmer).

The target of the next test is AXL (Homo sapiens (Human), UniProt P30530). In words: AXL autophosphorylation ELISA in A-172 cells. In kind it is cell-based. The conditions noted are these: cellular, Gas6-stimulated, phospho-AXL ELISA. The method, then: A-172 glioblastoma cells (ATCC #CRL-1620) were seeded at 2.5×10^5 cells/well onto 24-well plates (Greiner #662165), in DMEM (Thermo Fisher #11995-040) containing 10% FBS (Thermo Fisher #26140-079), 1% MEM NEAA (Thermo Fisher #11140-050), 1% GlutaMax (Thermo Fisher #35050-061), and 1% Penicillin Streptomycin (Thermo Fisher #15140-122). A-172 cells were incubated at 37° C., 5% CO2 for 24 h and then starved for 24 h in serum-free medium. Test compounds were serially diluted to produce an 8-point dose curve in fresh serum-free medium to a final concentration of 0.3% DMSO (vehicle) and added to the cells and incubated for 1 h. Cells were then stimulated with 1 μg/mL recombinant human Gas6 (R&D Systems #885-GSB-500) for 15 min, washed with cold PBS, and immediately lysed with 150 μL of cold IX lysis buffer [20 mM Tris, 137 mM sodium chloride, 2 mM EDTA, 10% glycerol, 1% NP-40 alternative, 1 mM activated sodium orthovanadate, 1 mM PefaBloc SC (Sigma-Aldrich #11429868001), protease/phosphatase inhibitor tablet (Thermo Fisher #A32959)]. Lysates were collected and 100 μL/well added into the human phospho-AXL Duo Set IC ELISA (R&D Systems #DYC2228-2). Assay was performed according to manufacturer's instructions and sample phospho-AXL concentrations were extrapolated using human phospho-AXL control (R&D Systems #841645) as a standard. Positive control wells (100% activity) contained Gas6-stimulated, DMSO-treated cell lysates. Negative control wells (0% activity) contained Gas6-stimulated, reference inhibitor-treated cell lysates. IC50 values were calculated by nonlinear regression analysis using a 4-parameter logistic curve fit in ActivityBase XL (IDBS).
AXL, sequence (P30530 26-894): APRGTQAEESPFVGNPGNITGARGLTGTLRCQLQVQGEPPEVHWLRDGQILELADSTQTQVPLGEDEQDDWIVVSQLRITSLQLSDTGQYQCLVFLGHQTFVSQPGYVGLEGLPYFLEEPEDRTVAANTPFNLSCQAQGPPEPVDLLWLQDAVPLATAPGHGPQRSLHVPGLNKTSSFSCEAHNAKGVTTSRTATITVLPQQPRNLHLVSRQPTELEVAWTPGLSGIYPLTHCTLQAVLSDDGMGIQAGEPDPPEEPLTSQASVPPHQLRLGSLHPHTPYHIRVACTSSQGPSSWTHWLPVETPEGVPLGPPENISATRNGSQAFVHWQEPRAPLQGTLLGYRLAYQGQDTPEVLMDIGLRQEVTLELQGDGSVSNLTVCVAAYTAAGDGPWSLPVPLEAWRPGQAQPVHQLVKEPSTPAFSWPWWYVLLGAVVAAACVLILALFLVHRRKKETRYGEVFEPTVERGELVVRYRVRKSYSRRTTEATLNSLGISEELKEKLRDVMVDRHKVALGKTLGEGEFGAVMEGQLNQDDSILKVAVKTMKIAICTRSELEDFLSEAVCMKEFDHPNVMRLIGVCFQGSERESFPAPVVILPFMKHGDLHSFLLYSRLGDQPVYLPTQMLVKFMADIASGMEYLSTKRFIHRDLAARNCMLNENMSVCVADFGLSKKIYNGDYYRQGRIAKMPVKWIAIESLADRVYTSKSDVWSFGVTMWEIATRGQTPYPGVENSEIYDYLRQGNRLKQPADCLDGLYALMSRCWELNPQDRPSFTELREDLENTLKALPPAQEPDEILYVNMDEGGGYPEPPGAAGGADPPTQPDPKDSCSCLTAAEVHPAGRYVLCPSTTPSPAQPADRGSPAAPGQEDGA
(In general: ELISA stands for enzyme-linked immunosorbent assay.)

The target in another test is KDR (Homo sapiens (Human), UniProt P35968). Description: KDR autophosphorylation ELISA in HUVEC cells. The format is cell-based. The conditions noted are these: cellular, VEGF165-stimulated, phospho-KDR ELISA. How it is done: Human umbilical vein endothelial cells or HUVEC (Lonza #C2519A) were seeded at 2×10^4 cells/well onto 96-well plates (Corning #3904), in EGM-2 growth medium (Lonza #CC-3162) containing 1% Penicillin Streptomycin (Thermo Fisher #15140-122). HUVEC cells were incubated at 37° C., 5% CO2 for 24 h and then starved for 24 h in serum-free EBM-2 basal medium (Lonza #CC-3156) containing 1% Penicillin Streptomycin. Test compounds were serially diluted to produce an 8-point dose curve in fresh serum-free medium to a final concentration of 0.3% DMSO (vehicle) and added to the cells and incubated for 1 h. Cells were then stimulated with 100 ng/mL recombinant human VEGF165 (R&D Systems #293-VE-500) for 5 min, washed with cold PBS, and immediately lysed with 130 μL of cold 1× lysis buffer [20 mM Tris, 137 mM sodium chloride, 2 mM EDTA, 10% glycerol, 1% NP-40 alternative, 1 mM activated sodium orthovanadate, 1 mM PefaBloc SC (Sigma-Aldrich #11429868001), protease/phosphatase inhibitor tablet (Thermo Fisher #A32959)]. Lysates were collected and 100 μL/well added into the human phospho-KDR Duo Set IC ELISA (R&D Systems #DYC 1766-2). Assay was performed according to manufacturer's instructions and sample phospho-KDR concentrations were extrapolated using human phospho-KDR control (R&D Systems #841421) as a standard. Positive control wells (100% activity) contained VEGF165-stimulated, DMSO-treated cell lysates. Negative control wells (0% activity) contained non-stimulated cell lysates. IC50 values were calculated by nonlinear regression analysis using a 4-parameter logistic curve fit in ActivityBase XE (IDBS).
KDR, sequence (P35968 20-1356): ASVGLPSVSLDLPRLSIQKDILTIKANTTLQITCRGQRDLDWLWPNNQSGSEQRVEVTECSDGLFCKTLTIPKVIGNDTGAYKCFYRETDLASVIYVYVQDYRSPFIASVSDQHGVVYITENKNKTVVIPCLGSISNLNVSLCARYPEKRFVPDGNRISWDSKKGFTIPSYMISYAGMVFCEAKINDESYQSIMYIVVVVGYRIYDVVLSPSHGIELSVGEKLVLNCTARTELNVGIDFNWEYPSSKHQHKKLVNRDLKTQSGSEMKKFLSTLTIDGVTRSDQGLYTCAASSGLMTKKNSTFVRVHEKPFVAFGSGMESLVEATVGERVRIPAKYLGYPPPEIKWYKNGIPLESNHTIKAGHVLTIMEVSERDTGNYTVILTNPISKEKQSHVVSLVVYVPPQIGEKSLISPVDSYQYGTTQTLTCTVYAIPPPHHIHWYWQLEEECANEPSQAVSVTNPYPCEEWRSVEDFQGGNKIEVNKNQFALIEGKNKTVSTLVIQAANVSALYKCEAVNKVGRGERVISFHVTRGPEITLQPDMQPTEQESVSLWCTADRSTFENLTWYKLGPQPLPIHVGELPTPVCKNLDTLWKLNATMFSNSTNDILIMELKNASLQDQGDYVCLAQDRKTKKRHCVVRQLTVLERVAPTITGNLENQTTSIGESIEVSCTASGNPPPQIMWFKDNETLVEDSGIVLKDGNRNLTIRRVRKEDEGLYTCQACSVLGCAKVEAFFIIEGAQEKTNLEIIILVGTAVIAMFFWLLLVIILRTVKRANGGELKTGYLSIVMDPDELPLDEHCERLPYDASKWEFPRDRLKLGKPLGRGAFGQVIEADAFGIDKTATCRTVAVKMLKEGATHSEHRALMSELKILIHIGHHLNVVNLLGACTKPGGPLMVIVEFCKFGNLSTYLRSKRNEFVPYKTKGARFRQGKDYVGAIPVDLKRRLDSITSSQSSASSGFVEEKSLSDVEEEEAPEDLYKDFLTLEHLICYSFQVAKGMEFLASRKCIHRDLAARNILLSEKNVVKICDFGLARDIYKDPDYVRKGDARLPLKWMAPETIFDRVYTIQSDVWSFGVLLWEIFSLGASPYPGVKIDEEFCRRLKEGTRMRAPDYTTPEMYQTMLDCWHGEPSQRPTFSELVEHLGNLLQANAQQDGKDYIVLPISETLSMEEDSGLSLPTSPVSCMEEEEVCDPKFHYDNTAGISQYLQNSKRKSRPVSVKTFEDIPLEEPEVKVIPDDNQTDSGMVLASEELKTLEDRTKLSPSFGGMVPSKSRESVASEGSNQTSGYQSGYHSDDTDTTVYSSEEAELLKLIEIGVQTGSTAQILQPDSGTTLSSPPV

In test [2] the target is T1, Met. In words: Met autophosphorylation ELISA in PC-3 cells. The format is cell-based. The conditions noted are these: cellular, HGF-stimulated, phospho-Met ELISA, read-out: c-Met IC50. How it is done: PC-3 prostate cancer cells (ATCC #CRL-1435) were seeded at 4×10^4 cells/well onto 24-well plates (Greiner #662165), in DMEM (Thermo Fisher #11995-040) containing 10% FBS (Thermo Fisher #26140-079), 1% MEM NEAA (Thermo Fisher #11140-050), 1% GlutaMax (Thermo Fisher #35050-061), and 1% Penicillin Streptomycin (Thermo Fisher #15140-122). PC-3 cells were incubated at 37° C., 5% CO2 for 24 h and then starved for 3 h in serum-free medium. Test compounds were serially diluted to produce an 8-point dose curve in fresh serum-free medium to a final concentration of 0.3% DMSO (vehicle) and added to the cells and incubated for 1 h. Cells were then stimulated with 100 ng/mL recombinant human HGF (R&D Systems #294-HG-250) for 10 min, washed with cold PBS, and immediately lysed with 130 μL of cold IX lysis buffer [20 mM Tris, 137 mM sodium chloride, 2 mM EDTA, 10% glycerol, 1% NP-40 alternative, 1 mM activated sodium orthovanadate, 1 mM PefaBloc SC (Sigma-Aldrich #11429868001), protease/phosphatase inhibitor tablet (Thermo Fisher #A32959)]. Lysates were clarified by centrifugation and 100 μL/well added into the PathScan phospho-Met (panTyr) Sandwich ELISA (Cell Signaling Technology #7333). Assay was performed according to manufacturer's instructions. Positive control wells (100% activity) contained HGF-stimulated, DMSO-treated cell lysates. Negative control wells (0% activity) contained HGF-stimulated, reference inhibitor-treated cell lysates. IC50 values were calculated by nonlinear regression analysis using a 4-parameter logistic curve fit in ActivityBase XL (IDBS).
Target sequence in this assay (P08581 25-1390): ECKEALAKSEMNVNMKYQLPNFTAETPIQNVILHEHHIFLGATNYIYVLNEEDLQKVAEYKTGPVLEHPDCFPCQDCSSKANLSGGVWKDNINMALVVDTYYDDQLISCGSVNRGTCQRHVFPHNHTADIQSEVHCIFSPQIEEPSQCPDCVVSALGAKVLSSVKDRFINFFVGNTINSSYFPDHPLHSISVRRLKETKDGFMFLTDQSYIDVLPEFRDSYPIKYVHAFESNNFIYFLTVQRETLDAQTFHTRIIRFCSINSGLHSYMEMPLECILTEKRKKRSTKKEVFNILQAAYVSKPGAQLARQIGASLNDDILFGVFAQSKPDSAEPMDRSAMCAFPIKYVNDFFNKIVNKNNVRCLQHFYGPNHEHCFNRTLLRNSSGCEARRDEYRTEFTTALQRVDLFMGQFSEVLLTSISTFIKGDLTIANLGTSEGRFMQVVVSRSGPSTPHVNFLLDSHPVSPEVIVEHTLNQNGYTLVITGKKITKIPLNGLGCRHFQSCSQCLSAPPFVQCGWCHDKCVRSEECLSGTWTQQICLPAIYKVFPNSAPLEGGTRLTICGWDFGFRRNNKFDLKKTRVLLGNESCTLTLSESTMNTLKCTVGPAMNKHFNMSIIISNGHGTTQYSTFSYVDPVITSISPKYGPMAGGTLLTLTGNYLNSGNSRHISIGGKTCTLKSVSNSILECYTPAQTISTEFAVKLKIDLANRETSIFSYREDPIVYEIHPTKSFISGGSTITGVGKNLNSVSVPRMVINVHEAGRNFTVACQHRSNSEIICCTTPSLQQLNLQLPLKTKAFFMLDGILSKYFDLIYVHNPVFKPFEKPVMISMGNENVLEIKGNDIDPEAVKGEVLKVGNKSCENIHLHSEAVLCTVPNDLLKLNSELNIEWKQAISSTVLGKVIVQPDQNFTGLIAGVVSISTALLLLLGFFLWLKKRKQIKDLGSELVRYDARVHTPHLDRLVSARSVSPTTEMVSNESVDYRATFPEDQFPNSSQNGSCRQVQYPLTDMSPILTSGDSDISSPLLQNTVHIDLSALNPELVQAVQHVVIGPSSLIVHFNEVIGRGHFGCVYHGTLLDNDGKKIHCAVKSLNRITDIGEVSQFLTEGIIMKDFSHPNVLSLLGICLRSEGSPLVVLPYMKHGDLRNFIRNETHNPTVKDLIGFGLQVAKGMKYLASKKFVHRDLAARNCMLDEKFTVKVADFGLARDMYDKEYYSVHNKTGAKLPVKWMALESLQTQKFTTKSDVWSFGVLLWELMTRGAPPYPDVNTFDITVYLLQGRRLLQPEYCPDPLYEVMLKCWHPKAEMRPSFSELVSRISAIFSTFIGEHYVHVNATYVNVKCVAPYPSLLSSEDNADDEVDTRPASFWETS

The structures appear in SMILES notation. pIC50: −log10 of the molar value. Bounds are passed on as bounds.

Human Axl, sequence (P30530 473-894 Q764R): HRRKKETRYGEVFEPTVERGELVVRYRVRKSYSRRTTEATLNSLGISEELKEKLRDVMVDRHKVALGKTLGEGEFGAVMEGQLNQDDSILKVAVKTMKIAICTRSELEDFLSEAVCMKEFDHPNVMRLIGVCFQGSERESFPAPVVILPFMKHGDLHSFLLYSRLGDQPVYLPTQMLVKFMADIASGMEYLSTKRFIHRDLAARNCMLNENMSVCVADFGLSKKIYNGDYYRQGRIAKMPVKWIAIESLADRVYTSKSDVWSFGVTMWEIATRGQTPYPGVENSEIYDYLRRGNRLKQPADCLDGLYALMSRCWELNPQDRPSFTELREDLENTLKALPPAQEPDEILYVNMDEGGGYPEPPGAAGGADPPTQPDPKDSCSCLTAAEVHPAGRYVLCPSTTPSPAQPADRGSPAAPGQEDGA

With `O=C(Nc1ccc(F)cc1)C1(C(=O)Nc2ccc(Oc3ncnc4cccnc34)cc2)CC1` [Compound 7, 1-N′-(4-fluorophenyl)-1-N-(4-pyrido[3,2-d]pyrimidin-4-yloxyphenyl)cyclopropane-1,1-dicarboxamide], the pIC50 (usually the IC50 on a negative log10 scale, so that one unit is a factor of ten) at Met [1] was 6.00 to 7.00; on Human Axl, below 6.00; at Mer it was below 6.00.

Consider `COc1cc2nccc(Oc3ccc(NC(=O)C4(C(=O)Nc5ccc(F)cc5)CC4)cc3F)c2nc1C(N)=O` [Compound 168, 1-N′-[4-[(6-carbamoyl-7-methoxy-1,5-naphthyridin-4-yl)oxy]-3-fluoro-phenyl]-1-N-(4-fluorophenyl)cyclopropane-1,1-dicarboxamide], for which the pIC50 against AXL is below 6.52; against KDR, below 6.52; at Met [2], 6.52 to 7.00.

For the compound `COc1cc2nccc(Oc3ccc(NC(=O)C4(C(=O)Nc5ccc(F)cc5)CC4)cc3Cl)c2nc1C(N)=O` [Compound 169, 1-N′-[4-[(6-carbamoyl-7-methoxy-1,5-naphthyridin-4-yl)oxy]-3-chlorophenyl]-1-N-(4-fluorophenyl)cyclo-propane-1,1-dicarboxamide], the pIC50 on AXL, on KDR and on Met [2] was 7.00 to 8.00 throughout.

As to `CNC(=O)c1nc2c(Oc3ccc(NC(=O)C4(C(=O)Nc5ccc(F)cc5)CC4)cc3)ccnc2cc1OC` [Compound 172, 1-N′-(4-fluorophenyl)-1-N-[4-[[7-methoxy-6-(methyl-carbamoyl)-1,5-naphthyridin-4-yl]oxy]phenyl]cyclo-propane-1,1-dicarboxamide], the results for the pIC50 at AXL, against KDR and on Met [2] were 6.52 to 7.00, below 6.52 and below 6.52, respectively.

Take `CNC(=O)c1nc2c(Oc3ccc(NC(=O)C4(C(=O)Nc5ccc(F)cc5)CC4)cc3F)ccnc2cc1OC` [Compound 173, 1-N′-[3-fluoro-4-[[7-methoxy-6-(methylcarbamoyl)-1,5-naphthyridin-4-- yl]oxy]phenyl]-1-N-(4-fluoro-phenyl)cyclopropane-1,1-dicarboxamide]: the pIC50 against AXL, at KDR and on Met [2] was 6.52 to 7.00 throughout.

As for `COc1cc2nccc(Oc3ccc(NC(=O)C4(C(=O)Nc5ccc(F)cc5)CC4)cc3)c2nc1C(=O)N(C)C` [Compound 174, 1-N-[4-[[6-(dimethyl-carbamoyl)-7-methoxy-1,5-naphthyridin-4-yl]oxy]phenyl]-1-N′-(4-fluorophenyl)cyclopropane-1,1-dicarboxamide], the results for the pIC50 against AXL, against KDR and at Met [2] were below 6.52, below 6.52 and 6.52 to 7.00, respectively.

As for `COc1cnc2c(Oc3cc(F)c(NC(=O)C4(C(=O)Nc5ccc(F)cc5)CC4)cc3F)ccnc2c1` [Compound 176, 1-N′-[2,5-difluoro-4-[(7-methoxy-1,5-naphthyridin-4-yl)oxy]phenyl]-1-N-(4-fluorophenyl)cyclopropane-1,1-dicarboxamide], the pIC50 is at least 8.00 at AXL, 6.52 to 7.00 at KDR and 7.00 to 8.00 on Met [2].

In the case of `COc1cc2nccc(Oc3ccc(NC(=O)C4(C(=O)Nc5ccc(F)cc5)CC4)cc3)c2nc1-c1cn[nH]c1` [Compound 183, 1-N′-(4-fluorophenyl)-1-N-[4-[[7-methoxy-6-(1H-pyrazol-4-yl)-1,5-naphthyridin-4-yl]oxy]phenyl]cyclopropane-1,1-dicarboxamide], the pIC50 at AXL, at KDR and at Met [2] was below 6.52 throughout.

For the compound `COc1cc2nccc(Oc3ccc(NC(=O)C4(C(=O)Nc5ccc(F)cc5)CC4)cc3)c2nc1-c1ccnn1C` [Compound 184, 1-N′-(4-fluorophenyl)-1-N-[4-[[7-methoxy-6-(2-methyl-pyrazol-3-yl)-1,5-naphthyridin-4-yl]oxy]phenyl]cyclo-propane-1,1-dicarboxamide], the pIC50 against AXL, against KDR and on Met [2] was below 6.52 in each case.
